Key:
[1] = tested on: Saos-2 cells over expressing non-functional BCRP mut#10; experiment: cells; type: cell-based, human; conditions: Homo sapiens, SAOS-2, 144 h, read-out: BCRP mut#10 (IC50 (nM))
Method: (§1) The anticancer effect of 5(S)-(2′-hydroxyethoxy)-20(S)-camptothecin & 5(R)-(2′-hydroxyethoxy)-20(S)-camptothecin were evaluated versus the racemate 5(RS)-(2′-hydroxyethoxy)-20(S)-camptothecin on Saos-2 cells over expressing functional BCRP#4 and non-functional BCRP mut#10. The human osteosarcoma cell line, Saos-2, was obtained from ATCC (American Type Culture Collection, Cat#HTB-85, Manassas, Va.) and were maintained in DMEM containing 10% fetal bovine serum, 1% penicillin/streptomycin, and 2 mM glutamine. Saos-2 cells were transfected with either BCRP#4 to over express functional BCRP or BCRP#10 to over express non-functional BCRP transporter. The cells were plated in 96-well plates at a density of 1000 cells per each well in a 0.1 ml of medium and allowed to attach overnight. The next morning the medium was gently aspirated and serial dilutions of the compounds to be tested were added. The cells were incubated at 37° C. in a 5% CO2 incubator. After 6 days of exposure to the test drugs, 10µl of Alamar blue was added aseptically to each well and the plates were returned to the incubator for 6 hr. The amount of the fluorescent dye produced was measured on a Cytofluor.RTM. 2300 (Millipore, Bedford, Mass.) using an excitation wavelength of 530 nm and emission wavelength of 590 nm. The relative fluorescence units obtained were used to calculate the percentage growth at each concentration in relation to the untreated control values. From the percentage growth values the IC50 (inhibitory concentration required to inhibit the cell growth by 50% compared to control cells growth) values were derived.

[2] = tested on: Saos-2 cells over expressing functional BCRP#4; experiment: cells; type: cell-based, human; conditions: Homo sapiens, SAOS-2, 144 h, read-out: BCRP mut#4 (IC50 (nM))
Method: as §1

[3] = tested on: Human bone marrow mononuclear cells; experiment: Human bone marrow assay (CFU-GM colonies); type: cell-based; conditions: human
Method: Methocult.TM. GF (Cat No: H4534, Poietics, Biowhittakar, USA) medium comprising Methycellulose in iscove's MDM, Fetal bovine serum, Bovine serum albumin, 2-Mercaptoethanol, L-Glutamine, rhStem cell factor, rhGM-CSF and rhIL-3 was used for the assay. Human bone marrow mononuclear cells (Cat No. 2M-125C, Poietics, Biowhittakar, USA) were mixed with Methocult GF and the cell density was adjusted to 3×10^5 cells/ml. From this preparation, 500 μL aliquots were made and […] of 20× drug solution or vehicle was added to each aliquot and mixed thoroughly. 100 μL of clonogenic medium was plated into each well and the plates were allowed to gel at 4° C. for 15 minutes. Plates were incubated at 37 degree C. in a fully humidified atmosphere of 5% CO2 in an incubator for 14 days. CFU-GM colonies were counted under an inverted microscope as aggregates of 50 cells or more. The percentage colony inhibition was calculated using the following formula: 100−[(number of colonies in drug treated wells/Number of colonies in control wells)×100].

[4] = tested on: 34 human cancer cell lines; experiment: In vitro cell growth assay, Sulphorhodamine B (SRB); type: cell-based; conditions: 48 h exposure
Method: Cell proliferation was evaluated by Sulphorhodamine B (SRB) assay where the amount of dye bound to the cells after staining gives a measure of cell growth. Refer to: JNCI, vol 83, No. 11, Jun. 5, 1991, which is incorporated herein by reference.
Briefly, cells (34 human cancer cell lines represented by bladder, breast, CNS, colon, epidermoid, lung, ovarian, melanoma, prostate, renal and uterine cancers) were seeded on a 96-well cell culture plates at a concentration of 10,000 cells per well and incubated at 37 degree C. in a CO2 incubator. Twenty-four hours later, cells were treated with different concentrations of […] dissolved in DMSO to a final concentration of 0.05% in the culture medium and exposed for 48 h. Cells were fixed by adding ice-cold 50% trichloroacetic acid (TCA) and incubating for 1 h at 4° C. The plates were washed with distilled water, air dried and stained with SRB solution (0.4% wt/vol in 1% Acetic acid) for 10 min at room temperature. Unbound SRB was removed by washing thoroughly with 1% acetic acid and the plates were air-dried. The bound SRB stain was solubilized with 10 mM Tris buffer, and the optical densities were read on a spectrophotometric plate reader at a single wavelength of 515 nm. […] From the optical densities the percentage growths were calculated using the following formulae: […]

CC[C@@]1(O)C(=O)OCc2c1cc1n(c2=O)[C@H](OCCO)c2cc3ccccc3nc2-1 [5(R)-(2′-hydroxyethoxy)-20(S)-camptothecin, reference compound]
IC50 [1]: 1300 nM
IC50 [2]: > 2000 nM
Safety Margin GI90/GI50 [3]: 0.06
GI50 [4]: 14.6 µM

Reference: patent US20110177161A1, “PHARMACEUTICAL COMPOSITIONS OF [5(S)-(2'-HYDROXYETHOXY)-20(S)-CAMPTOTHECIN” (DR. REDDY'S LABORATORIES LIMITED, priority 2007, published 2011)
